# Source: patent US9701670B2, “Pyrazolyl-ureas as kinase inhibitors” (RESPIVERT LIMITED, priority 2013, dated 2017)
# Experiments:
# BDF1 mice = assay: (C) TNBS-induced colitis in mice; type: in vivo, mouse; design: TNBS Ulcer grade / TNBS LP inflammation: scale not given here; conditions: 2 days; for TNBS LP inflammation / TNBS Ulcer grade: mice
# Procedure: Non-fasted, 10-12 week old, male BDF1 mice are dosed by oral gavage twice daily with either vehicle (5 mL/kg), reference item (Budesonide 2.5 mg/kg) or test compound (1, 5 or 50 mg/kg) one day before (Day −1) stimulation of the inflammatory response by treatment with 2,4,6-trinitrobenzenesulphonic acid (TNBS) (15 mg/mL in 50% ethanol/50% saline). On Day 0 of the study TNBS (200 μL) is administered intra-colonically via a plastic catheter followed by BID dosing of the vehicle, reference or test compound for 2 or 4 days. During the study animals are weighed every day and stool observations are made and recorded as a score, based on stool consistency. At the time of sacrifice on Day 2 (or Day 4) the large intestine is removed and the length and weight recorded. Sections of the colon are taken for either MPO analysis to determine neutrophil infiltration or for histopathology involving scoring to determine disease severity.
# [1] = Plasma pharmacokinetics in beagle dogs; type: in vivo, male beagle dogs; conditions: Dog
# Procedure: A study was conducted by Sai Life Sciences (Hinjewadi, Pune, India) to investigate the plasma pharmacokinetics of the compound of Example 77 in male beagle dogs following a single intravenous or oral administration.
# A group of three male beagle dogs were administered orally with an aqueous suspension formulation (having 2% HPMC and 0.5% Tween 80) of the compound of Example 77, at a dose of 1 mg/kg. In addition, a group of three male beagle dogs were administered intravenously with a solution formulation (in 5% v/v DMSO, 7.5% w/v Solutol HS 15 and 87.5% saline (0.9% w/v NaCl)) of the compound of Example 77, at a dose of 0.05 mg/kg. Blood samples (approximately 1.5 mL) were collected from jugular vein such that the samples were obtained at pre-dose, 0.25, 0.5, 1, 2, 4, 6, 8, and 24 hr (p.o.) and pre-dose, 0.08, 0.25, 0.5, 1, 2, 4, 8, 12, 24 and 32 hr (i.v.) post dose. The blood samples were collected from a set of three dogs at each time point in labelled micro centrifuge tube containing K2EDTA as anticoagulant. Plasma samples were separated by centrifugation at 2500 g for 10 min of whole blood and stored below −70° C. until bioanalysis. All samples were processed for analysis by protein precipitation using acetonitrile and analyzed with LC-MS/MS method (LLOQ=0.50 ng/mL). Pharmacokinetic parameters were calculated using the non-compartmental analysis tool of Phoenix WinNonlin® (Version 6.3).
# [2] = Cryopreserved hepatocyte stability; type: in vitro ADME; conditions: scaled from intrinsic clearance, mean of two experiments
# Procedure: Formulae CIint(tissue clearance) mL/min/kg=[0.693/t½(min)]×[1/microsomal protein concentration mg/mL]×[mg microsomes/g liver]×[g liver/kg body weight] […] The incubations were performed at 37° C. with 100 μL samples taken from the incubation, at 0, 10, 20, 45 and 90 minutes, and reactions terminated by addition of 100 μL of acetonitrile containing carbamazepine as analytical internal standard. […] Half-life values were calculated from the relationship T1/2(min)=−0.693/λ • where λ was the slope of the Ln concentration vs time curve. • Standard compounds testosterone, midazolam and 4-methylumbelliferone are included in the assay design.
# CIint(Tissue Clearance) mL/min/kg=[0.693/t½(min)]×[1/hepatocyte concentration (million cells/mL)]×[million cells/g liver]×[g liver/kg body weight] CIint(Hepatic clearance) mL/min/kg=hepatic blood flow×CIint/(hepatic blood flow+CIint) Hepatic extraction ratio (Eh)=CIint(Hepatic clearance) mL/min/kg/hepatic blood flow (mL/min/kg)
# [3] = male, beagle, plasma, intravenous 0.05 mg/kg
smiles,measurement,setting,value
"C#Cc1cc(Nc2nccc(Oc3ccc(NC(=O)Nc4cc(C(C)(C)C)nn4-c4ccc(OC)cc4)c4ccccc34)n2)cc(C(=O)NCCN2CCOCC2)c1 [Example 77, 3-((4-((4-(3-(3-(tert-Butyl)-1-(4-methoxyphenyl)-1H-pyrazol-5-yl)ureido)-naphthalen-1-yl)oxy)pyrimidin-2-yl)amino)-5-ethynyl-N-(2-morpholinoethyl)benzamide]","histopathology analysis, in vivo model of colonic inflammation","BDF1 mice; TNBS-induced colitis, dosed orally at 5 mg/kg",significant activity
same,TNBS LP inflammation,BDF1 mice; 1 mg/kg oral BID,2.4 ± 0.3
same,TNBS Ulcer grade,BDF1 mice; 1 mg/kg oral BID,3.1 ± 0.5
same,TNBS LP inflammation,BDF1 mice; 5 mg/kg oral BID,2.1 ± 0.3
same,TNBS Ulcer grade,BDF1 mice; 5 mg/kg oral BID,2.4 ± 0.5
same,plasma exposure after oral administration,[1]; 1 mg/kg p.o.,no plasma exposure at all was observed
same,Fpo,"[1]; 1 mg/kg p.o., Plasma",0%
same,AUC(0-inf),[1]; [3],37 ng·h/mL
same,AUC(0-t),[1]; [3],33.6 ng·h/mL
same,C0,[1]; [3],283 ng/mL
same,Vd,[1]; [3],1.8 L/kg
same,clearance,[1]; [3],25.4 mL/min/kg
same,half-life,[1]; [3],2.5 h
same,Mean hepatic extraction ratio (Eh),[2]; dog hepatocytes,0.87
same,Mean hepatic extraction ratio (Eh),[2]; human hepatocytes,0.69
same,Mean hepatic extraction ratio (Eh),[2]; rat hepatocytes,0.55
